From ChEMBL document CHEMBL6153094, “Rationally designed highly amphipathic antimicrobial peptides demonstrating superior bacterial selectivity relative to the corresponding α-helix peptide” (Eur J Med Chem, 2025)
Active and inactive are the calls of the source. The rule behind the calls is not given here.

Key:
[1] = system: Pseudomonas aeruginosa; assay: Antibacterial activity against Pseudomonas aeruginosa ATCC 27853 incubated for 18 hrs in presence of MgCl2 by Mueller-Hinton broth based assay; assay type: functional, organism-based
[2] = Hemolytic activity in mouse red blood cells assessed as hemolysis at 256 uM incubated for 1 hrs by absorbance based assay relative to control; assay type: toxicity, cell-based, Erythrocyte; conditions: read-out: Activity
[3] = system: Pseudomonas aeruginosa; assay: Induction of morphological changes in Pseudomonas aeruginosa ATCC 27853 assessed as cell adhesion at 2 times of MIC incubated for 30 to 120 mins by SEM analysis; assay type: functional, organism-based; conditions: time 30-120 min
[4] = system: Escherichia coli; assay: Antimicrobial activity against multi-drug resistant Escherichia coli clinical isolate 804 assessed as concentration required to eliminate 90% bacteria incubated for 18 hrs by broth-microdilution method; assay type: functional
[5] = system: Staphylococcus aureus; assay: Antimicrobial activity against methicillin-drug resistant Staphylococcus aureus clinical isolate 936 assessed as concentration required to eliminate 90% bacteria incubated for 18 hrs by broth-microdilution method; assay type: functional
[6] = system: Staphylococcus aureus; assay: Antibacterial activity against Staphylococcus aureus ATCC 25923 assessed as inhibition of bacterial growth at 2 times of MIC incubated for 18 hrs in presence of <2 microg/ml of chymotrypsin by absorbance based assay; assay type: functional, organism-based
[7] = system: Staphylococcus aureus; assay: Resistance fold, ratio of MIC for Staphylococcus aureus ATCC 25923 measured after 20 passages in presence of gentamicin to MIC for Staphylococcus aureus ATCC 25923 measured immediately in presence of gentamicin; assay type: functional
[8] = system: Pseudomonas aeruginosa; assay: Antibacterial activity against Pseudomonas aeruginosa ATCC 27853 assessed as fold change in MIC incubated for 18 hrs in presence of KCl by Mueller-Hinton broth based assay; assay type: functional
[9] = system: Pseudomonas aeruginosa; assay: Antibacterial activity against Pseudomonas aeruginosa ATCC 27853 incubated for 18 hrs in presence of ZnCl2 by Mueller-Hinton broth based assay; assay type: functional, organism-based
[10] = system: Staphylococcus aureus; assay: Antibacterial activity against Staphylococcus aureus ATCC 25923 assessed as fold change in MIC incubated for 18 hrs in presence of 2.5% serum by broth microdilution method; assay type: functional
[11] = system: Staphylococcus aureus; assay: Synergistic antimicrobial activity against gentamicin-resistant Staphylococcus aureus ATCC 25923 assessed as fractional inhibitory concentration index incubated for 18 hrs in presence of gentamicin by checkerboard microdilution method; assay type: functional
[12] = system: Pseudomonas aeruginosa; assay: Antimicrobial activity against multi-drug resistant Pseudomonas aeruginosa clinical isolate 119 assessed as concentration required to eliminate 90% bacteria incubated for 18 hrs by broth-microdilution method; assay type: functional
[13] = system: Cell membrane; assay: Disruption of outer membrane integrity in Pseudomonas aeruginosa ATCC 27853 assessed as increase in fluorescence intensity at 4 times of MIC measured for 12 mins by NPN uptake assay; assay type: subcellular
[14] = system: Cell membrane; assay: Disruption of membrane integrity in Staphylococcus aureus ATCC 25923 at 2 times of MIC incubated for 30 to 120 mins by SEM analysis; assay type: subcellular; conditions: time 30-120 min
[15] = system: Staphylococcus aureus; assay: Induction of morphological changes in Staphylococcus aureus ATCC 25923 assessed as content leakage at 2 times of MIC incubated for 30 to 120 mins by SEM analysis; assay type: functional, organism-based; conditions: time 30-120 min
[16] = system: Staphylococcus aureus; assay: Antimicrobial activity against methicillin-drug resistant Staphylococcus aureus clinical isolate 48 assessed as concentration required to eliminate 90% bacteria incubated for 18 hrs by broth-microdilution method; assay type: functional
[17] = system: Staphylococcus aureus; assay: Antimicrobial activity against methicillin-drug resistant Staphylococcus aureus clinical isolate 74 assessed as concentration required to eliminate 90% bacteria incubated for 18 hrs by broth-microdilution method; assay type: functional
[18] = system: Pseudomonas aeruginosa; assay: Bactericidal activity against Pseudomonas aeruginosa ATCC 27853 assessed as bacterial killing at 1 to 4 times of MIC by time-kill kinetics assay; assay type: functional, organism-based; conditions: time <= 360.0 min
[19] = system: Cell membrane; assay: Disruption of outer membrane integrity in Pseudomonas aeruginosa ATCC 27853 assessed as increase in fluorescence intensity at 1 times of MIC measured for 12 mins by NPN uptake assay; assay type: subcellular
[20] = system: Pseudomonas aeruginosa; assay: Antimicrobial activity against gentamicin-resistant Pseudomonas aeruginosa ATCC 27853 assessed as inhibition of visible bacterial growth incubated for 18 hrs by broth microdilution method; assay type: functional
[21] = system: Escherichia coli; assay: Antimicrobial activity against Escherichia coli ATCC 25922 assessed as inhibition of visible bacterial growth incubated for 18 hrs by broth microdilution method; assay type: functional
[22] = system: Bacillus subtilis; assay: Antimicrobial activity against Bacillus subtilis ATCC 23857 assessed as inhibition of visible bacterial growth incubated for 18 hrs by broth microdilution method; assay type: functional
[23] = system: Staphylococcus aureus; assay: Antibacterial activity against Staphylococcus aureus ATCC 25923 assessed as inhibition of bacterial growth at 2 times of MIC incubated for 18 hrs in presence of <2 microg/ml of trypsin by absorbance based assay; assay type: functional, organism-based
[24] = system: Pseudomonas aeruginosa; assay: Antibacterial activity against Pseudomonas aeruginosa ATCC 27853 assessed as fold change in MIC incubated for 18 hrs in presence of NaCl by Mueller-Hinton broth based assay; assay type: functional
[25] = system: Acinetobacter baumannii; assay: Antimicrobial activity against Acinetobacter baumannii ATCC 19606 assessed as inhibition of visible bacterial growth incubated for 18 hrs by broth microdilution method; assay type: functional
[26] = system: Klebsiella pneumoniae; assay: Antibacterial activity against Klebsiella pneumoniae ATCC 700603 infected in male Balb/c mouse model of pneumonia assessed as decrease in decrease in IL-6 level in lung at 2.5 to 10 mg/kg, ip administered at 4 and 12 hrs post-infected and measured after 24 hrs by ELISA; assay type: functional, organism-based; conditions: dose 2.5-10 mg/kg, time 20.0 hrs
[27] = system: Staphylococcus aureus; assay: Bactericidal activity against Staphylococcus aureus ATCC 25923 at 2 times of MIC incubated for 18 hrs in presence of 20 microg/ml of chymotrypsin by absorbance based assay; assay type: functional, organism-based
[28] = system: Staphylococcus aureus; assay: Antibacterial activity against methicillin-resistant Staphylococcus aureus ATCC 33591 infected in male Balb/c mouse model of full thickness skin wound assessed as reduction in number of inflammatory cells in skin at 1 mg/ml pre-infected with bacteria for 1 hrs followed by compound administration at 1,12 and 36 hrs post infection and measured after 10 days by H and E staining based analysis; assay type: functional, organism-based; conditions: time 10.0 day
[29] = Toxicity in male Balb/c mouse assessed as lethal dose administered intraperitoneally for 7 days; conditions: in vivo, route ip, time 7 day
[30] = system: Staphylococcus aureus; assay: Antibiofilm activity in Staphylococcus aureus ATCC 25923 assessed as inhibition of biofilm formation at 4 times of MIC incubated for 24 hrs by crystal violet staining based analysis relative to control; assay type: functional
[31] = system: Pseudomonas aeruginosa; assay: Induction of morphological changes in Pseudomonas aeruginosa ATCC 27853 assessed as cellular fragmentation at 2 times of MIC incubated for 30 to 120 mins by SEM analysis; assay type: functional, organism-based; conditions: time 30-120 min
[32] = system: Staphylococcus aureus; assay: Antibiofilm activity in Staphylococcus aureus ATCC 25923 assessed as inhibition of biofilm formation at 1 times of MIC incubated for 24 hrs by crystal violet staining based analysis relative to control; assay type: functional
[33] = system: Cell membrane; assay: Disruption of outer membrane integrity in Pseudomonas aeruginosa ATCC 27853 assessed as increase in fluorescence intensity at 2 times of MIC measured for 12 mins by NPN uptake assay; assay type: subcellular
[34] = system: Staphylococcus aureus; assay: Bactericidal activity against Staphylococcus aureus ATCC 25923 at 2 times of MIC incubated for 18 hrs in presence of 20 microg/ml of trypsin by absorbance based assay; assay type: functional, organism-based
[35] = system: Staphylococcus aureus; assay: Antimicrobial activity against methicillin-drug resistant Staphylococcus aureus ATCC 33591 assessed as concentration required to eliminate 90% bacteria incubated for 18 hrs by broth-microdilution method; assay type: functional

H-RRWFRRWRRWFR-NH2
Activity [1]: Active
hemolysis at 1 h, 256 µM [2]: < 10%
Activity [3]: Active
EC90 [4]: 5420 nM
EC90 [5]: 5220 nM
Activity [6]: Active
fold change (FC) [7]: <=2
fold change (FC) [8]: 2
Activity [9]: Active
fold change (FC) [10]: 32
fractional inhibitory concentration index (FICI) [11]: 0.25
EC90 [12]: 566 nM
Activity [13]: Active
Activity [14]: Active
Activity [15]: Active
EC90 [16]: 2780 nM
EC90 [17]: 2430 nM
Activity [18]: Time-dependent-effect
Activity [19]: Active
MIC [20]: 2 µM
MIC [21]: 4 µM
MIC [22]: 1 µM
Activity [23]: Active
fold change (FC) [24]: 2
MIC [25]: 8 µM
Activity [26]: inactive
Activity [27]: inactive
Activity [28]: Active
LD50 at 168 h [29]: 89.9 mg/kg
inhibition (INH) [30]: ~75%
Activity [31]: Active
inhibition (INH) [32]: ~50%
Activity [33]: Active
Activity [34]: inactive
EC90 [35]: 2260 nM
